“Also recorded” adds a separate entry of the source.
Molecular target: T1, rpL40 (Saccharomyces cerevisiae, UniProt P0CH08)
T1 construct: endogenous in cells; host or cells: S. cerevisiae diploid strain (BY2n / BY4743 background) co-transformed with the TE-FF and REN reporter plasmids
Assay: Biological activity of prospective L40 binders: tropoelastin-firefly / renilla dual luciferase reporter in yeast cells
Format: cell-based
Details: treatment at 1nM, 10nM, 100nm, 1µM, 10µM and 100µM; replicates n=3; Figs. 3-5
Experimental: The present invention will now be described further in the following examples with reference to the accompanying Figures, nevertheless, without being limited thereto. […] The wildtype (abbreviated WT) is shown as a red dot. […] Replicates n=3, and treatment was made at 1nM, 10nM, 100nm, 1µM, 10µM, and 100µM concentration of compounds.
Wildtype (BY2n) and variant ribosomal protein yeast strains (Kelly DE, Lamb DC, Kelly SL. Genome-wide generation of yeast gene deletion strains. Comp Funct Genomics. 2001;2(4):236-42. doi: 10.1002/cfg.95. PMID: 18628917; PMCID: PMC2447215), that were co-transformed with the tropoelastin-firefly and the renilla protein expression reporter plasmids were used for overnight cultures using single colony inoculation. Cell density (OD600) was determined using a Hitachi U_3000 spectrophotometer. […]
Dual luciferase assay readouts were performed with the GloMax Multi Detection System using the Dual-Luciferase® Reporter Assay System (Promega). For each dual luciferase luminescence measurement, 50 µl of a cell culture (5×10^5 cells) were transferred into a 96-well plate and lysed through addition of 20 µl passive lysis buffer (Promega) for one minute, following the instruction of the supplier. FF luminescence readout was detected upon addition of 50 µl of LAR II substrate, and then REN luminescence signal was recorded after the addition of 50 µl Stop & Glo® substrate. […]

T1 sequence (P0CH08 77-128): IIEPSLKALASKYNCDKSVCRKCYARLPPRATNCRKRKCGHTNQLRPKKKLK

`CCCC(Oc1cccc(C(=N)N)c1)C(=O)Nc1ccc2c(c1)S(=O)(=O)c1ccccc1-2` (stereo not shown) [Compound 22] was tested, and the “translation in yeast cells” value was “decreasing translation; also recorded: lowered translation”.

Reference: patent publication EP4368729A1, “MOLECULES TARGETING RIBOSOMAL PROTEIN RPL40 FOR USE IN COSMETICS AND THE TREATMENT OF DISEASES OF THE SKIN” (Merck Patent GmbH, priority 2022, dated 2024)
